Data published in ChEMBL document CHEMBL1131553, “Orally active indole N-oxide PDE4 inhibitors” (Bioorg Med Chem Lett, 1998).

Test system: not listed separately
Assay: Time taken to reach maximum concentration in plasma upon oral administration in mouse
Assay type: ADME, organism-based
Conditions: not given

Row | Tmax [min] | SMILES
1 | 15 | Cc1cn(Cc2ccccc2)c2cc(C(=O)Nc3c(Cl)c[n+]([O-])cc3Cl)ccc12
2 | 60 | Cc1cn(CC2CCCCC2)c2cc(C(=O)Nc3c(Cl)c[n+]([O-])cc3Cl)ccc12

Test system: Rattus norvegicus
Assay: Inhibition of streptococcal cell wall-washed arthritis model in rats at 3.0 mg/kg peroral dose
Assay type: functional
Conditions: route oral

Row | SMILES | inhibition in vivo at 3 mg/kg [%]
3 | Cc1cn(CC2CCCCC2)c2cc(C(=O)Nc3c(Cl)c[n+]([O-])cc3Cl)ccc12 | 25

Test system: not listed separately
Assay: Half-life by oral administration in mouse
Assay type: ADME, organism-based
Conditions: in vivo

Row | half-life [min] | SMILES
4 | 222 | Cc1cn(Cc2ccccc2)c2cc(C(=O)Nc3c(Cl)c[n+]([O-])cc3Cl)ccc12
5 | 150 | Cc1cn(CC2CCCCC2)c2cc(C(=O)Nc3c(Cl)c[n+]([O-])cc3Cl)ccc12

Test system: Mus musculus
Assay: In vivo inhibition of LPS induced tumor necrosis factor (TNF-alpha) in mice
Assay type: functional
Conditions: not given

Row | SMILES | ED50 [mg/kg]
6 | Cc1cn(CCC2CCCCC2)c2cc(C(=O)Nc3c(Cl)c[n+]([O-])cc3Cl)ccc12 | 7.4
7 | Cc1cn(Cc2ccccc2)c2cc(C(=O)Nc3c(Cl)c[n+]([O-])cc3Cl)ccc12 | 20
8 | Cc1cn(CC2CCCCC2)c2cc(C(=O)Nc3c(Cl)c[n+]([O-])cc3Cl)ccc12 | 7.1
9 | Cc1cn(Cc2ccc(C(F)(F)F)cc2)c2cc(C(=O)Nc3c(Cl)c[n+]([O-])cc3Cl)ccc12 | 10
10 | COc1ccc(C(=O)Nc2c(Cl)cncc2Cl)cc1OC1CCCC1 | 3.1
11 | COc1ccc(C2CNC(=O)C2)cc1OC1CCCC1 (centres undefined) [ROLIPRAM] | 8.2

Test system: Rattus norvegicus
Assay: Percentage change in body weight of rats in streptococcal cell wall-washed arthritis model at 10.0 mg/kg peroral dose
Assay type: functional
Conditions: route oral

Row | SMILES | Change [%]
12 | Cc1cn(CC2CCCCC2)c2cc(C(=O)Nc3c(Cl)c[n+]([O-])cc3Cl)ccc12 | -7

Molecular target: T1, Phosphodiesterase 4 (Homo sapiens, UniProt P27815+Q08499+Q07343+Q08493)
Assay: Inhibition of phosphodiesterase type IV (PDE4) activity
Assay type: protein assay
Conditions: not given

Row | IC50 [nM] | SMILES
13 | 260 | Cc1cn(Cc2ccc(S(C)(=O)=O)cc2)c2cc(C(=O)Nc3c(Cl)c[n+]([O-])cc3Cl)ccc12
14 | 7 | Cc1cn(CCCc2ccccc2)c2cc(C(=O)Nc3c(Cl)c[n+]([O-])cc3Cl)ccc12
15 | 1400 | Cc1cn(Cc2ccc(C(=O)O)cc2)c2cc(C(=O)Nc3c(Cl)c[n+]([O-])cc3Cl)ccc12
16 | 19 | Cc1cn(C2CCCCC2)c2cc(C(=O)Nc3c(Cl)c[n+]([O-])cc3Cl)ccc12
17 | 20 | Cc1cn(CC2CCCCCC2)c2cc(C(=O)Nc3c(Cl)c[n+]([O-])cc3Cl)ccc12
18 | 4.1 | Cc1cn(CCC2CCCCC2)c2cc(C(=O)Nc3c(Cl)c[n+]([O-])cc3Cl)ccc12
19 | 8 | Cc1cn(Cc2ccccc2)c2cc(C(=O)Nc3c(Cl)c[n+]([O-])cc3Cl)ccc12
20 | 30 | Cc1cn(CC2CCCCC2)c2cc(C(=O)Nc3c(Cl)c[n+]([O-])cc3Cl)ccc12
21 | 14 | Cc1cn(Cc2ccc(C(F)(F)F)cc2)c2cc(C(=O)Nc3c(Cl)c[n+]([O-])cc3Cl)ccc12

Test system: Canis familiaris
Assay: Emetic effect in dogs on intravenous dose (2/2)
Assay type: functional
Conditions: Canis lupus familiaris

Row | SMILES | ED50 [mg/kg]
22 | COc1ccc(C2CNC(=O)C2)cc1OC1CCCC1 (centres undefined) [ROLIPRAM] | 0.03

Test system: Rattus norvegicus
Assay: Percentage change in body weight of rats in streptococcal cell wall-washed arthritis model at 3.0 mg/kg peroral dose
Assay type: functional
Conditions: route oral

Row | SMILES | Change [%]
23 | Cc1cn(CC2CCCCC2)c2cc(C(=O)Nc3c(Cl)c[n+]([O-])cc3Cl)ccc12 | -5

Test system: Rattus norvegicus
Assay: Inhibition of streptococcal cell wall-washed arthritis model in rats at 10.0 mg/kg peroral dose
Assay type: functional
Conditions: route oral

Row | SMILES | inhibition in vivo at 10 mg/kg [%]
24 | Cc1cn(CC2CCCCC2)c2cc(C(=O)Nc3c(Cl)c[n+]([O-])cc3Cl)ccc12 | 33

Test system: Canis familiaris
Assay: Emetic effect in dogs on intravenous dose (4/4)
Assay type: functional
Conditions: Canis lupus familiaris

Row | SMILES | ED50 [mg/kg]
25 | COc1ccc(C(=O)Nc2c(Cl)cncc2Cl)cc1OC1CCCC1 | 0.6

Test system: Rattus norvegicus
Assay: Streptococcal cell wall-washed arthritis model in rats at 30.0 mg/kg peroral dose
Assay type: functional
Conditions: route oral

Row | SMILES | Mean AUC
26 | Cc1cn(CC2CCCCC2)c2cc(C(=O)Nc3c(Cl)c[n+]([O-])cc3Cl)ccc12 | 1.1

Test system: Rattus norvegicus
Assay: Inhibition of streptococcal cell wall-washed arthritis model in rats at 30.0 mg/kg peroral dose
Assay type: functional
Conditions: route oral

Row | SMILES | inhibition in vivo at 30 mg/kg [%]
27 | Cc1cn(CC2CCCCC2)c2cc(C(=O)Nc3c(Cl)c[n+]([O-])cc3Cl)ccc12 | 77

Test system: not listed separately
Assay: Area under curve by ioral administration in mouse
Assay type: ADME, organism-based
Conditions: in vivo, po

Row | AUC [ng·h/mL] | SMILES
28 | 669 | Cc1cn(Cc2ccccc2)c2cc(C(=O)Nc3c(Cl)c[n+]([O-])cc3Cl)ccc12
29 | 3140 | Cc1cn(CC2CCCCC2)c2cc(C(=O)Nc3c(Cl)c[n+]([O-])cc3Cl)ccc12

Test system: not listed separately
Assay: Value distribution upon iv administration in mouse
Assay type: ADME, organism-based
Conditions: in vivo, read-out: Vdss

Row | Vd [L/kg] | SMILES
30 | 0.9 | Cc1cn(Cc2ccccc2)c2cc(C(=O)Nc3c(Cl)c[n+]([O-])cc3Cl)ccc12
31 | 1.7 | Cc1cn(CC2CCCCC2)c2cc(C(=O)Nc3c(Cl)c[n+]([O-])cc3Cl)ccc12

Test system: Mus musculus
Assay: In vivo inhibition of LPS induced tumor necrosis factor (TNF-alpha) in mice at 10 mg/kg
Assay type: functional
Conditions: not given

Row | SMILES | inhibition in vivo at 10 mg/kg [%]
32 | Cc1cn(CC2CCCCCC2)c2cc(C(=O)Nc3c(Cl)c[n+]([O-])cc3Cl)ccc12 | 8

Test system: Canis familiaris
Assay: Emetic effect in dogs on intravenous dose (0/4)
Assay type: functional
Conditions: Canis lupus familiaris

Row | SMILES | ED50 [mg/kg]
33 | Cc1cn(Cc2ccccc2)c2cc(C(=O)Nc3c(Cl)c[n+]([O-])cc3Cl)ccc12 | 3
34 | Cc1cn(CC2CCCCC2)c2cc(C(=O)Nc3c(Cl)c[n+]([O-])cc3Cl)ccc12 | > 0.8

Test system: Rattus norvegicus
Assay: Percentage change in body weight of rats in streptococcal cell wall-washed arthritis model at 30.0 mg/kg peroral dose
Assay type: functional
Conditions: route oral

Row | SMILES | Change [%]
35 | Cc1cn(CC2CCCCC2)c2cc(C(=O)Nc3c(Cl)c[n+]([O-])cc3Cl)ccc12 | -13

Test system: not listed separately
Assay: Maximum concentration in plasma upon oral administration in mouse
Assay type: ADME, organism-based
Conditions: read-out: Cp max

Row | Cmax [ng/mL] | SMILES
36 | 393 | Cc1cn(Cc2ccccc2)c2cc(C(=O)Nc3c(Cl)c[n+]([O-])cc3Cl)ccc12
37 | 439 | Cc1cn(CC2CCCCC2)c2cc(C(=O)Nc3c(Cl)c[n+]([O-])cc3Cl)ccc12

Test system: not listed separately
Assay: Oral bioavailability in mouse
Assay type: ADME, organism-based
Conditions: in vivo

Row | bioavailability [%] | SMILES
38 | 33 | Cc1cn(Cc2ccccc2)c2cc(C(=O)Nc3c(Cl)c[n+]([O-])cc3Cl)ccc12
39 | 96 | Cc1cn(CC2CCCCC2)c2cc(C(=O)Nc3c(Cl)c[n+]([O-])cc3Cl)ccc12

Test system: not listed separately
Assay: Plasma clearance value upon iv administration in mouse
Assay type: ADME, organism-based
Conditions: not given

Row | clearance [mL/min/kg] | SMILES
40 | 8.33 | Cc1cn(Cc2ccccc2)c2cc(C(=O)Nc3c(Cl)c[n+]([O-])cc3Cl)ccc12
41 | 5 | Cc1cn(CC2CCCCC2)c2cc(C(=O)Nc3c(Cl)c[n+]([O-])cc3Cl)ccc12

Test system: Rattus norvegicus
Assay: Streptococcal cell wall-washed arthritis model in rats at 3.0 mg/kg peroral dose
Assay type: functional
Conditions: route oral

Row | SMILES | Mean AUC
42 | Cc1cn(CC2CCCCC2)c2cc(C(=O)Nc3c(Cl)c[n+]([O-])cc3Cl)ccc12 | 3.7

Test system: Rattus norvegicus
Assay: Streptococcal cell wall-washed arthritis model in rats at 10.0 mg/kg peroral dose
Assay type: functional
Conditions: route oral

Row | SMILES | Mean AUC
43 | Cc1cn(CC2CCCCC2)c2cc(C(=O)Nc3c(Cl)c[n+]([O-])cc3Cl)ccc12 | 3.3

Test system: Mus musculus
Assay: In vivo inhibition of LPS induced tumor necrosis factor (TNF-alpha) in mice at 50 mg/kg
Assay type: functional
Conditions: not given

Row | SMILES | inhibition in vivo at 50 mg/kg [%]
44 | Cc1cn(Cc2ccc(S(C)(=O)=O)cc2)c2cc(C(=O)Nc3c(Cl)c[n+]([O-])cc3Cl)ccc12 | 38
45 | Cc1cn(CCCc2ccccc2)c2cc(C(=O)Nc3c(Cl)c[n+]([O-])cc3Cl)ccc12 | 34

Test system: not listed separately
Assay: Area under curve by iv administration in mouse
Assay type: ADME, organism-based
Conditions: in vivo

Row | AUC [ng·h/mL] | SMILES
46 | 2020 | Cc1cn(Cc2ccccc2)c2cc(C(=O)Nc3c(Cl)c[n+]([O-])cc3Cl)ccc12
47 | 3260 | Cc1cn(CC2CCCCC2)c2cc(C(=O)Nc3c(Cl)c[n+]([O-])cc3Cl)ccc12

Test system: Canis familiaris
Assay: Emetic effect in dogs on intravenous dose (3/4)
Assay type: functional
Conditions: Canis lupus familiaris

Row | SMILES | ED50 [mg/kg]
48 | Cc1cn(CCC2CCCCC2)c2cc(C(=O)Nc3c(Cl)c[n+]([O-])cc3Cl)ccc12 | 1

Test system: not listed separately
Assay: Half-life by iv administration in mouse
Assay type: ADME, organism-based
Conditions: in vivo

Row | half-life [min] | SMILES
49 | 306 | Cc1cn(Cc2ccccc2)c2cc(C(=O)Nc3c(Cl)c[n+]([O-])cc3Cl)ccc12
50 | 216 | Cc1cn(CC2CCCCC2)c2cc(C(=O)Nc3c(Cl)c[n+]([O-])cc3Cl)ccc12

Molecular target: T1, Phosphodiesterase 4
Assay type: protein assay
Conditions: not given

Row | Ki [nM] | SMILES
51 | 1124 | Cc1cn(Cc2ccc(S(C)(=O)=O)cc2)c2cc(C(=O)Nc3c(Cl)c[n+]([O-])cc3Cl)ccc12
52 | 30 | Cc1cn(CCCc2ccccc2)c2cc(C(=O)Nc3c(Cl)c[n+]([O-])cc3Cl)ccc12
53 | 3184 | Cc1cn(Cc2ccc(C(=O)O)cc2)c2cc(C(=O)Nc3c(Cl)c[n+]([O-])cc3Cl)ccc12
54 | 38 | Cc1cn(C2CCCCC2)c2cc(C(=O)Nc3c(Cl)c[n+]([O-])cc3Cl)ccc12
55 | 30 | Cc1cn(CC2CCCCCC2)c2cc(C(=O)Nc3c(Cl)c[n+]([O-])cc3Cl)ccc12
56 | 12 | Cc1cn(CCC2CCCCC2)c2cc(C(=O)Nc3c(Cl)c[n+]([O-])cc3Cl)ccc12
57 | 60 | Cc1cn(Cc2ccccc2)c2cc(C(=O)Nc3c(Cl)c[n+]([O-])cc3Cl)ccc12
58 | 86 | Cc1cn(CC2CCCCC2)c2cc(C(=O)Nc3c(Cl)c[n+]([O-])cc3Cl)ccc12
59 | 67 | Cc1cn(Cc2ccc(C(F)(F)F)cc2)c2cc(C(=O)Nc3c(Cl)c[n+]([O-])cc3Cl)ccc12
